In patent US6008245A, “Sulfonamide-substituted benzopyran derivatives, processes for their preparation, their use as a medicament, and pharmaceutical preparations comprising them” (priority 1997, dated 1999):

Biological target: T1, human IsK protein (UniProt P15382+P70057)
T1 construct: expressed in transfected cells; host or cells: Xenopus laevis oocytes injected with in vitro synthesized IsK RNA
Assay: cell-based
Conditions: human IsK expressed in Xenopus oocytes; voltage jumps to -10 mV lasting 15 s; pH 7.5; room temperature; Hill equation

| Structure (SMILES) | IC50 |
| --- | --- |
| CN([C@@H]1c2cc(OCc3ccccc3)ccc2OC(C)(C)[C@H]1O)S(C)(=O)=O (racemic) [Example 1, (±)-trans-N-(6-Benzyloxy-3-hydroxy-2,2-dimethylchroman-4-yl)-N-methylmethanesulfonamide] | 200 nM |
| CC(=O)O[C@H]1[C@H](N(C)S(C)(=O)=O)c2cc(OCc3ccccc3)ccc2OC1(C)C (racemic) [Example 2, (±)-trans-N-(6-Benzyloxy-3-acetoxy-2,2-dimethylchroman-4-yl)-N-methyl-methanesulfonamide] | 13000 nM |
| CO[C@H]1[C@H](N(C)S(C)(=O)=O)c2cc(OCc3ccccc3)ccc2OC1(C)C (racemic) [Example 3, (±)-trans-N-(6-Benzyloxy-3-methoxy-2,2-dimethylchroman-4-yl)-N-methyl-methanesulfonamide] | 6500 nM |
| CCCCOc1ccc2c(c1)[C@@H](N(C)S(C)(=O)=O)[C@H](O)C(C)(C)O2 (racemic) [Example 5, (±)-trans-N-(6-Butoxy-3-hydroxy-2,2-dimethylchroman-4-yl)-N-methyl-methanesulfonamide] | 250 nM |
| CCCCOc1ccc2c(c1)[C@@H](N(C)S(C)(=O)=O)[C@H](OC(C)=O)C(C)(C)O2 (racemic) [Example 6, (±)-trans-N-(3-Acetoxy-6-butoxy-2,2-dimethylchroman-4-yl)-N-methyl-methanesulfonamide] | > 10000 nM |
| CCCCN([C@@H]1c2cc(OCc3ccccc3)ccc2OC(C)(C)[C@H]1O)S(C)(=O)=O (racemic) [Example 10, (±)-trans-N-(6-Benzyloxy-3-hydroxy-2,2-dimethylchroman-4-yl)-N-butyl-methanesulfonamide] | 400 nM |
| COC(=O)CN([C@@H]1c2cc(OCc3ccccc3)ccc2OC(C)(C)[C@H]1O)S(C)(=O)=O (racemic) [Example 12, Methyl (±)-trans-[(6-benzyloxy-3-hydroxy-2,2-dimethylchroman-4-yl)-methanesulfonylamino]acetate] | 800 nM |
| CCCCOc1ccc2c(c1)[C@@H](N(CC)S(C)(=O)=O)[C@H](O)C(C)(C)O2 (racemic) [Example 14, (±)-trans-N-(6-Butoxy-3-hydroxy-2,2-dimethylchroman-4-yl)-N-ethyl-methanesulfonamide] | 200 nM |
| CC(=O)O[C@H]1[C@H](N(C)S(C)(=O)=O)c2cc(OCCCC(F)(F)F)ccc2OC1(C)C (racemic) [Example 21, (±)-trans-N-[3-Acetoxy-6-(4,4,4-trifluorobutoxy)-2,2-dimethylchroman-4-yl]-N-methyl-methanesulfonamide] | ~10000 nM |
| CN(C1=CC(C)(C)Oc2ccc(OCc3ccccc3)cc21)S(C)(=O)=O [Example 4, N-(6-Benzyloxy-2,2-dimethyl-2H-chromen-4-yl)-N-methyl-methanesulfonamide] | 1600 nM |
| CCCCOc1ccc2c(c1)C(N(C)S(C)(=O)=O)=CC(C)(C)O2 [Example 7, N-(6-Butoxy-2,2-dimethyl-2H-chromen-4-yl)-N-methyl-methanesulfonamide] | 1600 nM |
| CCCOc1ccc2c(c1)C(N(C)S(C)(=O)=O)=CC(C)(C)O2 [Example 9, N-(6-Propoxy-2,2-dimethyl-2H-chromen-4-yl)-N-methyl-methanesulfonamide] | 2600 nM |
| CCCCN(C1=CC(C)(C)Oc2ccc(OCc3ccccc3)cc21)S(C)(=O)=O [Example 11] | 1600 nM |
| CCCCOc1ccc2c(c1)C(N(CC)S(C)(=O)=O)=CC(C)(C)O2 [Example 15, N-(6-Butoxy-2,2-dimethyl-2H-chromen-4-yl)-N-ethyl-methanesulfonamide] | 1300 nM |
| CCCCOc1ccc2c(c1)[C@@H](N(C)S(C)(=O)=O)[C@H](O)C(C)(C)O2 [Example 16, (3S, 4R)-(-)-N-(6-Butoxy-3-hydroxy-2,2-dimethylchroman-4-yl)-N-methyl-methanesulfonamide] | 400 nM |
| CCS(=O)(=O)N(C)[C@@H]1c2cc(OCc3ccccc3)ccc2OC(C)(C)[C@H]1O [Example 17, (3S, 4R)-(-)-N-(6-Benzyloxy-3-hydroxy-2,2-dimethylchroman-4-yl)-N-methyl-ethanesulfonamide] | 400 nM |
| CCS(=O)(=O)N(C)[C@H]1c2cc(OCCCC(F)(F)F)ccc2OC(C)(C)[C@@H]1O [Example 18, (3R, 4S)-(+)-N-[-3-Hydroxy-2,2-dimethyl-6-(4,4,4-trifluorobutoxy)chroman-4-yl]-N-methyl-ethanesulfonamide] | 100 nM |
| CN(C1=CC(C)(C)Oc2ccc(OCCCC(F)(F)F)cc21)S(C)(=O)=O [Example 22, N-[6-(4,4,4-Trifluorobutoxy)-2,2-dimethyl-2H-chromen-4-yl]-N-methyl-methanesulfonamide] | 600 nM |
| CC1(C)Oc2ccc(OCCCC(F)(F)F)cc2[C@H](NS(C)(=O)=O)[C@H]1O [Example 23a, (3R,4S)-N-[3-Hydroxy-2,2-dimethyl-6-(4,4,4-trifluoro-butoxy)-chroman-4-yl]-methanesulfonamide] | 1700 nM |

Tested on: IKr
Assay: not given
Conditions: class III antiarrhythmics; cited from earlier work

| Structure (SMILES) | IKr block |
| --- | --- |
| CC(C)NC[C@@H](O)c1ccc(NS(C)(=O)=O)cc1 [d-sotalol] | block IKr predominantly or exclusively |

Tested on: K+ (ATP) channel
Assay: not given
Conditions: known compounds; cited from earlier work

| Structure (SMILES) | action on ATP-sensitive K+ channels |
| --- | --- |
| CC1(C)Oc2ccc(C#N)cc2[C@@H](N2CCCC2=O)[C@@H]1O (relative stereo) [cromakalim] | openers of ATP-sensitive K^+ channels |

Tested on: IKs
Assay: not given
Conditions: cited from earlier work

| Structure (SMILES) | blocking action on the IKs |
| --- | --- |
| CN1CCN(CCCCN2C(=O)CN(/N=C/c3ccc(-c4ccc(Cl)cc4)o3)C2=O)CC1 [azimilide] | blocking action on the IKs |
